Measured values from patent US6582719B2, “Combinations of antiseptic and antibiotic agents that inhibit the development of resistant microorganisms” (priority 2001, dated 2003).
Where two headings read alike, the source gives them in different places.

Legend:
Pseudomonas aeruginosa = experiment: Zones of inhibition of treated catheter segments on seeded trypticase soy agar plates, 24 hours
S. epidermidis [1] = experiment: Minimum inhibitory concentration in Trypticase Soy Broth, synergy (fractional inhibitory concentration); assay type: cell-based, Staphylococcus epidermidis
S. epidermidis [2] = assay type: cell-based, Staphylococcus epidermidis
[3] = tetrahydrofuran/methanol solvent systems
[4] = catheter treated with 2% bismuth salt
[5] = catheter treated with 2% bismuth salt + 3% minocycline
[6] = 10-20 passages, inoculum 10^4 cfu/ml
[7] = 10 transfers, inoculum 10^6 cfu/ml

Molecule | Zones of Inhibition Against Pseudomonas aeruginosa (mm) 2% Bismuth Salt (Pseudomonas aeruginosa) [mm] | Zones of Inhibition Against Pseudomonas aeruginosa (mm) 2% Bismuth Salt + 3% Minocycline (Pseudomonas aeruginosa) [mm] | INCREASE IN MIC (fold) (S. epidermidis [2]; [6]) | other results
O=[N+]([O-])[O-].O=[N+]([O-])[O-].O=[N+]([O-])[O-].[Bi+3] [Bismuth Nitrate, bismuth nitrate] |  |  |  | Zones of Inhibition Against Pseudomonas aeruginosa (mm) 2% Bismuth Salt (Pseudomonas aeruginosa; [4]): 0 mm; Zones of Inhibition Against Pseudomonas aeruginosa (mm) 2% Bismuth Salt + 3% Minocycline (Pseudomonas aeruginosa; [5]): 15 mm
CC(=O)[O-].CC(=O)[O-].CC(=O)[O-].[Bi+3] [Bismuth acetate, bismuth acetate] | 0 | 17 |  | 
O=C([O-])c1ccccc1.O=C([O-])c1ccccc1.O=C([O-])c1ccccc1.[Bi+3] [Bismuth benzoate, bismuth benzoate] | 0 | 18 |  | 
[Bi+3].[O-]B([O-])[O-] [Bismuth borate, bismuth borate] | 0 | 13 |  | 
O=C([O-])CC(O)(CC(=O)[O-])C(=O)[O-].[Bi+3] [Bismuth citrate, bismuth citrate] | 0 | 17 |  | 
CC(=O)O.CC(=O)O.NC(=N\CCCCCC/N=C(N)/N=C(\N)Nc1ccc(Cl)cc1)/N=C(\N)Nc1ccc(Cl)cc1 [Chlorhexidine (CHX), chlorhexidine diacetate] |  |  |  | MIC (S. epidermidis [1]; inoculum of 10^4 cfu/ml): 0.5 µg/mL; INCREASE IN MIC (fold) (S. epidermidis [2]): 2 fold; MIC (μg/ml) AFTER PASSAGE (S. epidermidis [2]): 1.0 µg/mL; MIC (μg/ml) BEFORE PASSAGE (S. epidermidis [2]): 0.5 µg/mL
CN(C)c1ccc(O)c2c1C[C@H]1C[C@H]3[C@H](N(C)C)C(O)=C(C(N)=O)C(=O)[C@@]3(O)C(O)=C1C2=O [Minocycline (M), minocycline] |  |  | 2 fold | INCREASE IN MIC (fold) (S. epidermidis [2]; [7]): 4 fold
CCn1cc(C(=O)O)c(=O)c2cc(F)c(N3CCNCC3)cc21 [Norfloxacin (Nf), norfloxacin] |  |  | 40 fold | upper limit incorporated (low solubility in tetrahydrofuran/methanol) [3]: about 0.5 percent (w/v)
CO[C@H]1/C=C/O[C@@]2(C)Oc3c(C)c(O)c4c(O)c(c(/C=N/N5CCN(C)CC5)c(O)c4c3C2=O)NC(=O)/C(C)=C\C=C\[C@H](C)[C@H](O)[C@@H](C)[C@@H](O)[C@@H](C)[C@H](OC(C)=O)[C@@H]1C [Rifampin (R), rifampin] |  |  | 25,000 fold | 
NC[C@H]1O[C@H](O[C@H]2[C@H](O)[C@@H](O[C@H]3O[C@H](CO)[C@@H](O)[C@H](N)[C@H]3O)[C@H](N)C[C@@H]2N)[C@H](N)C[C@@H]1O [Tobramycin (Tb), tobramycin] |  |  | 20 fold | 
Oc1cc(Cl)ccc1Oc1ccc(Cl)cc1Cl [Triclosan (T), triclosan] |  |  | 7 fold | MIC (S. epidermidis [1]; Staphylococcus epidermidis, 24 h): 0.35 µg/mL; INCREASE IN MIC (fold) (S. epidermidis [2]; [7]): 7 fold
bismuth mandelate | 0 | 18.5 |  | 
bismuth palmitate | 0 | 18.5 |  | 
bismuth salicylate | 0 | 17 |  | 
bismuth sulfadiazine |  |  |  | Zones of Inhibition Against Pseudomonas aeruginosa (mm) 2% Bismuth Salt (Pseudomonas aeruginosa; [4]): 6.5 mm; Zones of Inhibition Against Pseudomonas aeruginosa (mm) 2% Bismuth Salt + 3% Minocycline (Pseudomonas aeruginosa; [5]): 15.5 mm
polyhexamethylenebiguanide [PHMB] |  |  |  | INCREASE IN MIC (fold) (S. epidermidis [2]): 1.0 fold; MIC (μg/ml) AFTER PASSAGE (S. epidermidis [2]): 0.31 µg/mL; MIC (μg/ml) BEFORE PASSAGE (S. epidermidis [2]): 0.31 µg/mL
